Earlier results on one compound are cited in patent publication US7635572B2, “Methods for conducting assays for enzyme activity on protein microarrays” (Life Technologies Corporation, priority 2004, dated 2009).

The test system of the series is 39 kinases (Table 4). To be noted: known general specificities of the inhibitors, Table 3; cited from earlier work.

For the compound `Oc1ccc(-c2nc(-c3ccncc3)c(-c3ccc(F)cc3)[nH]2)cc1` [SB 202190], the “General Specificity (known)” value is “serine/threonine”.
